According to ChEMBL document CHEMBL3991601, “The target landscape of clinical kinase drugs” (Science, 2017):
The source made the active and inactive calls.

How the values were obtained:
[1] = molecular target: Myosin light chain kinase, smooth muscle (Homo sapiens, UniProt Q15746)
[2] = molecular target: Ras-related protein Rab-6A (Homo sapiens, UniProt P20340)
[3] = molecular target: ATP-dependent RNA helicase DDX3X (Homo sapiens, UniProt O00571)
[4] = molecular target: S-adenosylmethionine synthase isoform type-2 (Homo sapiens, UniProt P31153)
S-adenosylmethionine synthase isoform type-2, sequence (P31153 whole entry, canonical isoform): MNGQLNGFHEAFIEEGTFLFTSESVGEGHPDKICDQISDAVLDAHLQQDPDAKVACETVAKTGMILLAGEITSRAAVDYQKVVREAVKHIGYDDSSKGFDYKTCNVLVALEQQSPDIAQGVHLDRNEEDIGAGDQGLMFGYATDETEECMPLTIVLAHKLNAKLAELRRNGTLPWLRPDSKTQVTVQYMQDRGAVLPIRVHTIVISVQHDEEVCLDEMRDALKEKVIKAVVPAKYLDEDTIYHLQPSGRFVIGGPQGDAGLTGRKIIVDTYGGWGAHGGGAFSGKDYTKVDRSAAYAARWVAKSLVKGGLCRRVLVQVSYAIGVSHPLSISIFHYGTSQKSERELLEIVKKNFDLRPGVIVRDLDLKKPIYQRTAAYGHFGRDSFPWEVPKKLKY

[5] = molecular target: T1, Structural maintenance of chromosomes protein 1A (Homo sapiens, UniProt Q14683)
T1 sequence (Q14683 whole entry): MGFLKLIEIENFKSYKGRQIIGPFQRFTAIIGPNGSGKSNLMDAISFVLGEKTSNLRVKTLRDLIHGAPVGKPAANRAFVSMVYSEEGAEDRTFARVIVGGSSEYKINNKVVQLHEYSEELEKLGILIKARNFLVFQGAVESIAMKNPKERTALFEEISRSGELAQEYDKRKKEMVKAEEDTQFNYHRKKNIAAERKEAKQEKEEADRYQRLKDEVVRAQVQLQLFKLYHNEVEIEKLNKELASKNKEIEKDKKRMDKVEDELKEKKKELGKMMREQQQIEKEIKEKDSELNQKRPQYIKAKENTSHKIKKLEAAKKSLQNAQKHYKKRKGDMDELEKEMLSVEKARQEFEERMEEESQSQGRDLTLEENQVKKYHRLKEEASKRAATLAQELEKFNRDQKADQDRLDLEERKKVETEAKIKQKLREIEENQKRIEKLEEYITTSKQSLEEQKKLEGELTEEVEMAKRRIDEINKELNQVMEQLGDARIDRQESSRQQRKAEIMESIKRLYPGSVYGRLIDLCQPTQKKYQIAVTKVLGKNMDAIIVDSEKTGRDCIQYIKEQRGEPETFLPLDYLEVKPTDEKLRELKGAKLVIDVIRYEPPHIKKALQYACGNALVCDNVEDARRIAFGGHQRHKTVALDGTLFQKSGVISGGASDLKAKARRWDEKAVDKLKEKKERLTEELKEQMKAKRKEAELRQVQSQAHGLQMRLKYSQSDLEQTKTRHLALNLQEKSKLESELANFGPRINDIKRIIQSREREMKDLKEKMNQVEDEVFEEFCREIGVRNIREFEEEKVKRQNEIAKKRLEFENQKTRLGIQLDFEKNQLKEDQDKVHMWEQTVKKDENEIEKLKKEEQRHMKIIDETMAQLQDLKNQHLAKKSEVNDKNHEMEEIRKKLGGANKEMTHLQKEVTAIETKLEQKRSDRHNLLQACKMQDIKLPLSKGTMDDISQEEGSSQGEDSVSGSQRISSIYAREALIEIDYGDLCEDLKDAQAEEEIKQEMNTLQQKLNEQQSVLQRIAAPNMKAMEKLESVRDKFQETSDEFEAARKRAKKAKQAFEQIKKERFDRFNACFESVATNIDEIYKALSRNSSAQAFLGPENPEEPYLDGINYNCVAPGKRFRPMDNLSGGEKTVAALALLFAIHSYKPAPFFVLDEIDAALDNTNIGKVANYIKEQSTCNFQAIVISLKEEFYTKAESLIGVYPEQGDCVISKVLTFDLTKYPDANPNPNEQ

[6] = molecular target: Serine/threonine-protein kinase SIK2 (Homo sapiens, UniProt Q9H0K1)
[7] = molecular target: Inosine-5'-monophosphate dehydrogenase 2 (Homo sapiens, UniProt P12268)
[8] = molecular target: T2, ATP-dependent 6-phosphofructokinase, platelet type (Homo sapiens, UniProt Q01813)
T2 sequence (Q01813 whole entry): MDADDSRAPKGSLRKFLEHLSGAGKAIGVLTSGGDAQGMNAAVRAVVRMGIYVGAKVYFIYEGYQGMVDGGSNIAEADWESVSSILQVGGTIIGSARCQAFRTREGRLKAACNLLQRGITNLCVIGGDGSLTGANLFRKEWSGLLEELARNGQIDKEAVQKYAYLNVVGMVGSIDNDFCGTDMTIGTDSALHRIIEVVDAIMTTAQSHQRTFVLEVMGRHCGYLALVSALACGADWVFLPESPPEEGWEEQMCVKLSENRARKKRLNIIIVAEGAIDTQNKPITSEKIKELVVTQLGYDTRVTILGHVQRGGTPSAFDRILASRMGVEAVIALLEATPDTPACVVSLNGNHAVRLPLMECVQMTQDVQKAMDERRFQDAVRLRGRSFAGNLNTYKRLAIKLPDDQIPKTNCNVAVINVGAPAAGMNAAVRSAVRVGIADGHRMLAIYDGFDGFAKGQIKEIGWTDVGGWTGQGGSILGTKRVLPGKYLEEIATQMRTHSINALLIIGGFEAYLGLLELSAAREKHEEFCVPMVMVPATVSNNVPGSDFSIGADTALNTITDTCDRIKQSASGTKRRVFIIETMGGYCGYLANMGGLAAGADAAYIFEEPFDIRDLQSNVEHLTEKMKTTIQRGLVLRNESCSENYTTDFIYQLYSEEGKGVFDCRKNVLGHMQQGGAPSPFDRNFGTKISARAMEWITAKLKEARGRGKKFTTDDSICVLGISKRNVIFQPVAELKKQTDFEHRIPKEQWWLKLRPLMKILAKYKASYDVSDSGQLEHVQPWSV

[9] = molecular target: Casein kinase I isoform delta (Homo sapiens, UniProt P48730)
Casein kinase I isoform delta, sequence (P48730 whole entry, canonical isoform): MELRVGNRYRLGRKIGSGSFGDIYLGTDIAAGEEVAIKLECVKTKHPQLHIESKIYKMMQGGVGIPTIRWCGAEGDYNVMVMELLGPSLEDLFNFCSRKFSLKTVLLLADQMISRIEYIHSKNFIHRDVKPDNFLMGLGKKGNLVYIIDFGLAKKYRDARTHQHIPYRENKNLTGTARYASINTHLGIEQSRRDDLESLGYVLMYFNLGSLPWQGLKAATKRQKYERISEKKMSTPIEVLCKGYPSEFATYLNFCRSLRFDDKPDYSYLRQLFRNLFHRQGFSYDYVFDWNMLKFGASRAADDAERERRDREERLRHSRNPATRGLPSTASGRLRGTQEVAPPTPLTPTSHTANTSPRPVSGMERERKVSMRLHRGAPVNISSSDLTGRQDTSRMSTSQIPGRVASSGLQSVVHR

[10] = molecular target: Non-receptor tyrosine-protein kinase TYK2 (Homo sapiens, UniProt P29597)
Non-receptor tyrosine-protein kinase TYK2, sequence (P29597 whole entry): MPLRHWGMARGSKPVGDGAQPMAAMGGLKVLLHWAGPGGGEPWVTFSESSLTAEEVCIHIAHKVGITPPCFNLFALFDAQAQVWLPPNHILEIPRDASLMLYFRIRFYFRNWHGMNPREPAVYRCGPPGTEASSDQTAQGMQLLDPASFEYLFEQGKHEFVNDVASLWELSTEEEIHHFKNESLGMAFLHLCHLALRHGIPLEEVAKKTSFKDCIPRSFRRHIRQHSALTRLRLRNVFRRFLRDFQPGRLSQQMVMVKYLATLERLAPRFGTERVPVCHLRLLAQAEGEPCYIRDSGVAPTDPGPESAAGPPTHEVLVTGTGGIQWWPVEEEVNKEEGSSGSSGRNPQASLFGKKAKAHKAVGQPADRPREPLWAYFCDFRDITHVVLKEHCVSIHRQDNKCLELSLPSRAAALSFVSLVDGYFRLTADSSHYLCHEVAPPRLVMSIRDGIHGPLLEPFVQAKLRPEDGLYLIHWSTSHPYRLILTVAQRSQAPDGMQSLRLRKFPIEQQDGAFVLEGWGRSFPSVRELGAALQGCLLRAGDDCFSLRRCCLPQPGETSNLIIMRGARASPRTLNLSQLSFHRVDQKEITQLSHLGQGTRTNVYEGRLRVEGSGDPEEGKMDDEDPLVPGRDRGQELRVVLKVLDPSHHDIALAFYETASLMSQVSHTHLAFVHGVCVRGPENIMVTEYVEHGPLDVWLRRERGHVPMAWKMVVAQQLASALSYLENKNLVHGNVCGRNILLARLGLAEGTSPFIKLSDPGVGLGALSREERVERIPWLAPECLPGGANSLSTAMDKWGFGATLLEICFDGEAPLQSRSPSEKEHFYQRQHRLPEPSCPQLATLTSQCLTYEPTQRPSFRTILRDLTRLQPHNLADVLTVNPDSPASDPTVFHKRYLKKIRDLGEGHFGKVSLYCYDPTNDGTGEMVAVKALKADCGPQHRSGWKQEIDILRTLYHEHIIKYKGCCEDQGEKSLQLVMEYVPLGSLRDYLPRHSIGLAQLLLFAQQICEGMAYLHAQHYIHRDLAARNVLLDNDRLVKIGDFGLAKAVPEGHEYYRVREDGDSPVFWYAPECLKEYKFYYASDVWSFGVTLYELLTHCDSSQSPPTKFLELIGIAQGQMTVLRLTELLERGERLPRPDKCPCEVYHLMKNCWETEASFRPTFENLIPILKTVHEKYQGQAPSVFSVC

[11] = molecular target: Mitogen-activated protein kinase 9 (Homo sapiens, UniProt P45984)
Mitogen-activated protein kinase 9, sequence (P45984 whole entry): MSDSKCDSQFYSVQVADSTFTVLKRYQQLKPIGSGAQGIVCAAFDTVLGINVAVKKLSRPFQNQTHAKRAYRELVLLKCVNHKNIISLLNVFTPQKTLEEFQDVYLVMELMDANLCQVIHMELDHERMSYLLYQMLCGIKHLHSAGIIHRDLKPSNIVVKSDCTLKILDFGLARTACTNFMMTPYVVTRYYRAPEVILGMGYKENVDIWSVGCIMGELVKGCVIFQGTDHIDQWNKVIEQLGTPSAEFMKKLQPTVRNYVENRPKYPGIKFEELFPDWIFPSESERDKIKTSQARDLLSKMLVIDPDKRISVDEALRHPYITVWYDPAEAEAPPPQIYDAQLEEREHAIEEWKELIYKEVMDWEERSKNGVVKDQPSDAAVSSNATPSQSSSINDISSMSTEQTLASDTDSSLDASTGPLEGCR

[12] = molecular target: Interleukin-1 receptor-associated kinase 1 (Homo sapiens, UniProt P51617)
[13] = molecular target: Glycogen synthase kinase-3 beta (Homo sapiens, UniProt P49841)
Glycogen synthase kinase-3 beta, sequence (P49841 whole entry): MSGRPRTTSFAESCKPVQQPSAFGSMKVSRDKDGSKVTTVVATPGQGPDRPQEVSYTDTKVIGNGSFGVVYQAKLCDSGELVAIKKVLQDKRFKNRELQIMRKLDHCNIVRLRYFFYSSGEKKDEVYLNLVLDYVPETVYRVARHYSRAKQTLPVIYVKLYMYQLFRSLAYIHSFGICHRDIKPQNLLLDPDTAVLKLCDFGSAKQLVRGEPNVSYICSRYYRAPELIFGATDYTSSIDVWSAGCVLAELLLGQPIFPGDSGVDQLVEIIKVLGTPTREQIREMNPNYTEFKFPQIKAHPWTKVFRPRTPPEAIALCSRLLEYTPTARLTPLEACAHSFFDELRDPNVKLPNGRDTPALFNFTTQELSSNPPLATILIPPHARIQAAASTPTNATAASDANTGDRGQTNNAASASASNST
Note: in the data inactive means no Kd found up to 30 µM.

Ras-related protein Rab-6A, sequence (P20340 whole entry): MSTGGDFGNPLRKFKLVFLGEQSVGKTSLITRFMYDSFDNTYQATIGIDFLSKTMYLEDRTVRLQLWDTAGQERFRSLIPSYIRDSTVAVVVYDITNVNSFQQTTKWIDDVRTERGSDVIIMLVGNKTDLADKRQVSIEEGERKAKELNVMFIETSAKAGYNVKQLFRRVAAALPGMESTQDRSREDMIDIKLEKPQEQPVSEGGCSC
Myosin light chain kinase, smooth muscle, sequence (Q15746 whole entry): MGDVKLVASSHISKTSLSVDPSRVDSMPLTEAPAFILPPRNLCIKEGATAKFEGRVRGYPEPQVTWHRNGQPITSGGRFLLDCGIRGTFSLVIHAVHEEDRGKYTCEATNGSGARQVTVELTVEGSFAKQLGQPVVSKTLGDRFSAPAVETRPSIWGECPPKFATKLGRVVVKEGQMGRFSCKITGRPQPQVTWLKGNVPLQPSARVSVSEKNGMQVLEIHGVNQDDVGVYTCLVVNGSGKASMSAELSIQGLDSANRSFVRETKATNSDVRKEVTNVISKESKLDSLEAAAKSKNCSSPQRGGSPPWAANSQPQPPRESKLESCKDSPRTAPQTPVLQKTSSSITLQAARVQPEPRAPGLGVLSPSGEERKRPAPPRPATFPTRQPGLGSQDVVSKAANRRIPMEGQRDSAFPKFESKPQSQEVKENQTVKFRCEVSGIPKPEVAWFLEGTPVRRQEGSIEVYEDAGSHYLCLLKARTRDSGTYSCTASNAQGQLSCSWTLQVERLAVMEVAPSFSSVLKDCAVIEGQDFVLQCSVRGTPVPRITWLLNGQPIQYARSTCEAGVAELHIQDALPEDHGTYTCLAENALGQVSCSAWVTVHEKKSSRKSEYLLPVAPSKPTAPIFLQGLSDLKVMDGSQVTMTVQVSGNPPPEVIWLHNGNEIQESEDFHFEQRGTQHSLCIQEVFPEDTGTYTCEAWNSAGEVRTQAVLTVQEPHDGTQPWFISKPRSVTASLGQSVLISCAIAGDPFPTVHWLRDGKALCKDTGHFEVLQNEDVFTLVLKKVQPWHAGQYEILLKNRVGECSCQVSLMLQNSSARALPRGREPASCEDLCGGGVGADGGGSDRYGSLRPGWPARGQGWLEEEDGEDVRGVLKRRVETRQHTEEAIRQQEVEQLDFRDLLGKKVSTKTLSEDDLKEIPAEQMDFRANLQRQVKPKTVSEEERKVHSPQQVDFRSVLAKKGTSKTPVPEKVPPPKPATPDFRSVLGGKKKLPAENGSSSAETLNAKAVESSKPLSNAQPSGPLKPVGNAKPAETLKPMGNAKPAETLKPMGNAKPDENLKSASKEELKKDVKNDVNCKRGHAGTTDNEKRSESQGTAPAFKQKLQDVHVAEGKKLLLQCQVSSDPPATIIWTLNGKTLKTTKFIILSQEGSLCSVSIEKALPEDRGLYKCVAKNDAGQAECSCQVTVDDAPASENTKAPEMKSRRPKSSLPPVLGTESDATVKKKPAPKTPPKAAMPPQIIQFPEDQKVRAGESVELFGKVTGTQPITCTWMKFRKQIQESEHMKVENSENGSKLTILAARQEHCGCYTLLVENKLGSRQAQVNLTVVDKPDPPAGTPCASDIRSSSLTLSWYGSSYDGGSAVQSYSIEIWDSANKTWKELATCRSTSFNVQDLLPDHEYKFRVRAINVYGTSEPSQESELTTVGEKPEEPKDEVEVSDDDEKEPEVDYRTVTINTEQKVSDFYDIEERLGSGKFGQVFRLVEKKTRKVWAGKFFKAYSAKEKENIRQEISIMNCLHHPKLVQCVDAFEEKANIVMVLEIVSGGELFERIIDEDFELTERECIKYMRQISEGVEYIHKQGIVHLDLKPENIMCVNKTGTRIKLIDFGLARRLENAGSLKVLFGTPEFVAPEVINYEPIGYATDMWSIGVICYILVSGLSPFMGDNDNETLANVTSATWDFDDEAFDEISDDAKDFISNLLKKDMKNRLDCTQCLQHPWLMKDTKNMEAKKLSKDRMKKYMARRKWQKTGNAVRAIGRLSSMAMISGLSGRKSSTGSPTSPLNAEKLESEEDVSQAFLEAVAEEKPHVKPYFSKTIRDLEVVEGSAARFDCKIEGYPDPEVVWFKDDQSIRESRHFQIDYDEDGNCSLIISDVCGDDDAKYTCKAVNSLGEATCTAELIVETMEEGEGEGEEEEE

Compound	Kd [1]	Kd [2]	Kd [3]	Kd [4]	Kd [5]	Kd [6]	Kd [7]	Kd [8]	Kd [9]	Kd [10]	Kd [11]	Kd [12]	Kd [13]
Nc1nc(N)c2nc(-c3cccc(O)c3)c(-c3cccc(O)c3)nc2n1 [TG100-115]		> 30 µM (inactive)	> 30 µM (inactive)	> 30 µM (inactive)			> 30 µM (inactive)	> 30 µM (inactive)	> 30 µM (inactive)				
O=C(Nc1cccc(Cl)c1)Nc1ncc(CCNc2ncnc3ccsc23)s1 [SNS-314]	> 30 µM (inactive)	> 30 µM (inactive)	> 30 µM (inactive)	> 30 µM (inactive)	> 30 µM (inactive)	> 30 µM (inactive)	> 30 µM (inactive)	> 30 µM (inactive)					
O=c1sn(-c2cccc3ccccc23)c(=O)n1Cc1ccccc1 [TIDEGLUSIB]	> 30 µM (inactive)	> 30 µM (inactive)	> 30 µM (inactive)	> 30 µM (inactive)	> 30 µM (inactive)	> 30 µM (inactive)	> 30 µM (inactive)	> 30 µM (inactive)	> 30 µM (inactive)	> 30 µM (inactive)	> 30 µM (inactive)	> 30 µM (inactive)	
CN1CCN(c2ccc3nc(-c4c(N)c5c(F)cccc5[nH]c4=O)[nH]c3c2)CC1 [DOVITINIB]		> 30 µM (inactive)	> 30 µM (inactive)		> 30 µM (inactive)		> 30 µM (inactive)	> 30 µM (inactive)					
C1=C/COCc2cc(ccc2OCCN2CCCC2)Nc2nccc(n2)-c2cccc(c2)COC/1 [PACRITINIB]	> 30 µM (inactive)	> 30 µM (inactive)	> 30 µM (inactive)	> 30 µM (inactive)	> 30 µM (inactive)	> 30 µM (inactive)	> 30 µM (inactive)	> 30 µM (inactive)	> 30 µM (inactive)		> 30 µM (inactive)	0.258 µM (active)	> 30 µM (inactive)
CCc1cnn2c(NCc3ccc[n+]([O-])c3)cc(N3CCCC[C@H]3CCO)nc12 [DINACICLIB]	> 30 µM (inactive)	> 30 µM (inactive)	> 30 µM (inactive)	> 30 µM (inactive)	> 30 µM (inactive)	> 30 µM (inactive)	> 30 µM (inactive)	> 30 µM (inactive)	> 30 µM (inactive)	> 30 µM (inactive)		> 30 µM (inactive)	1.43 µM (active)
CN1CCC(COc2cnc(-c3cccc(Cn4nc(-c5cccc(C#N)c5)ccc4=O)c3)nc2)CC1 [TEPOTINIB]	> 30 µM (inactive)	> 30 µM (inactive)	> 30 µM (inactive)	> 30 µM (inactive)	> 30 µM (inactive)	> 30 µM (inactive)	> 30 µM (inactive)	> 30 µM (inactive)	> 30 µM (inactive)		> 30 µM (inactive)	> 30 µM (inactive)	> 30 µM (inactive)
Cc1cn(-c2cc(NC(=O)c3ccc(C)c(Nc4nccc(-c5cccnc5)n4)c3)cc(C(F)(F)F)c2)cn1 [NILOTINIB]		> 30 µM (inactive)	> 30 µM (inactive)	> 30 µM (inactive)	> 30 µM (inactive)		> 30 µM (inactive)	> 30 µM (inactive)					
OCCn1cc(-c2cnc3nnn(Cc4ccc5ncccc5c4)c3n2)cn1 [PF-04217903]	> 30 µM (inactive)	> 30 µM (inactive)	> 30 µM (inactive)	> 30 µM (inactive)		> 30 µM (inactive)	> 30 µM (inactive)	> 30 µM (inactive)	> 30 µM (inactive)	> 30 µM (inactive)		> 30 µM (inactive)	
Cn1cc(-c2ccc(F)c(C(F)(F)F)c2)nc1C1CCN(c2ncnc3[nH]ncc23)CC1 [LY-2584702]	> 30 µM (inactive)	> 30 µM (inactive)	> 30 µM (inactive)			> 30 µM (inactive)	> 30 µM (inactive)	> 30 µM (inactive)	> 30 µM (inactive)	> 30 µM (inactive)	> 30 µM (inactive)	> 30 µM (inactive)	
CNC(=O)c1ccc(C)c(-n2c(C)cc(OCc3ccc(F)cc3F)c(Br)c2=O)c1 [PH-797804]	> 30 µM (inactive)	> 30 µM (inactive)	> 30 µM (inactive)	> 30 µM (inactive)	> 30 µM (inactive)	> 30 µM (inactive)	> 30 µM (inactive)	> 30 µM (inactive)	> 30 µM (inactive)	> 30 µM (inactive)		> 30 µM (inactive)	> 30 µM (inactive)
Cc1ccc(NC(=O)c2ccc(CN3CC[C@H](N(C)C)C3)c(C(F)(F)F)c2)cc1Nc1nccc(-c2cncnc2)n1 [BAFETINIB]	1.21 µM		> 30 µM (inactive)		> 30 µM (inactive)	> 30 µM (inactive)			> 30 µM (inactive)	> 30 µM (inactive)	> 30 µM (inactive)	2.06 µM	> 30 µM (inactive)
CNC(=O)c1ccc(-c2cnc3ncc(Cc4ccc5ncccc5c4)n3n2)cc1F [CAPMATINIB]	> 30 µM (inactive)		> 30 µM (inactive)	> 30 µM (inactive)	> 30 µM (inactive)	> 30 µM (inactive)	> 30 µM (inactive)		> 30 µM (inactive)	> 30 µM (inactive)	> 30 µM (inactive)	> 30 µM (inactive)	

Second part, the compound after the results:

Kd [1]	Kd [2]	Kd [3]	Kd [4]	Kd [5]	Kd [6]	Kd [7]	Kd [8]	Kd [9]	Kd [10]	Kd [11]	Kd [12]	Kd [13]	Compound
> 30 µM (inactive)	> 30 µM (inactive)	> 30 µM (inactive)	> 30 µM (inactive)	> 30 µM (inactive)	> 30 µM (inactive)	> 30 µM (inactive)	> 30 µM (inactive)						Cc1cc(Nc2cc(N3CCN(C)CC3)nc(/C=C/c3ccccc3)n2)n[nH]1 [ENMD-2076]
	> 30 µM (inactive)	> 30 µM (inactive)	> 30 µM (inactive)	> 30 µM (inactive)		> 30 µM (inactive)	> 30 µM (inactive)						CCn1c(-c2nonc2N)nc2c(C#CC(C)(C)O)ncc(OC[C@H]3CCCNC3)c21 [GSK-690693]
	> 30 µM (inactive)	> 30 µM (inactive)	> 30 µM (inactive)	> 30 µM (inactive)	1.4 µM (active)	> 30 µM (inactive)	> 30 µM (inactive)						Cc1nc(N)sc1-c1ccnc(Nc2ccc(N3CCOCC3)cc2)n1 [CYC-116]
